PubChem BioAssay AID248 (DTP/NCI, 2004)
Inconclusive results and toxic doses are left out.

Test system: L1210 leukemia ip in BDF1 mice, survival T/C
Experiment: NCI In Vivo Anticancer Drug Screen. Data for tumor model L1210 Leukemia (intraperitoneal) in B6D2F1 (BDF1) mice
Settings: endpoint: mean survival time, higher = longer survival
Outline: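 Read-out is survival time, reported as the treated-group measurement over the vehicle-control measurement.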

[1] = dose: 100.0 mg/kg/injection, schedule: Q01DX001 (ip), vehicle: saline
[2] = dose: 200.0 mg/kg/injection, schedule: Q01DX001 (ip), vehicle: saline
[3] = dose: 400.0 mg/kg/injection, schedule: Q01DX001 (ip), vehicle: saline
[4] = dose: 100.0 mg/kg/injection, schedule: Q01DX009 (ip), vehicle: Klucel (hydroxypropylcellulose) (HPC)
[5] = dose: 200.0 mg/kg/injection, schedule: Q01DX009 (ip), vehicle: Klucel (hydroxypropylcellulose) (HPC)
[6] = dose: 400.0 mg/kg/injection, schedule: Q01DX009 (ip), vehicle: Klucel (hydroxypropylcellulose) (HPC)

## NC(=O)N(CCCCN(N=O)C(N)=O)N=O
dose: 40.0 mg/kg/injection, schedule: Q01DX001 (ip), vehicle: saline with Tween-80
  T/C: 152 % of control
dose: 60.0 mg/kg/injection, schedule: Q01DX001 (ip), vehicle: saline with Tween-80
  T/C: 178 % of control
dose: 93.0 mg/kg/injection, schedule: Q01DX001 (ip), vehicle: saline with Tween-80
  T/C: 246 % of control
dose: 500.0 mg/kg/injection, schedule: Q01DX001 (ip), vehicle: saline with Tween-80
  T/C: 90 % of control

## CCCCCOc1cc(C(C)=O)cc(OC)c1OC(=O)c1cc([N+](=O)[O-])cc([N+](=O)[O-])c1
dose: 100.0 mg/kg/injection, schedule: Q01DX009 (ip), vehicle: saline with Tween-80
  T/C: 94 % of control
dose: 200.0 mg/kg/injection, schedule: Q01DX009 (ip), vehicle: saline with Tween-80
  T/C: 94 % of control
dose: 400.0 mg/kg/injection, schedule: Q01DX009 (ip), vehicle: saline with Tween-80
  T/C: 102 % of control

## Cn1cnc2c(C#N)c(C#N)nn2c1=O
dose: 50.0 mg/kg/injection, schedule: Q01DX001 (ip), vehicle: carboxymethylcellulose (CMC)
  T/C: 93 % of control
dose: 100.0 mg/kg/injection, schedule: Q01DX001 (ip), vehicle: carboxymethylcellulose (CMC)
  T/C: 90 % of control
dose: 200.0 mg/kg/injection, schedule: Q01DX001 (ip), vehicle: carboxymethylcellulose (CMC)
  T/C: 93 % of control

## O=S([O-])c1ccc(Cl)cc1.O=S([O-])c1ccc(Cl)cc1.[Zn+2]
dose: 75.0 mg/kg/injection, schedule: Q01DX001 (ip), vehicle: saline
  T/C: 101 % of control
dose: 150.0 mg/kg/injection, schedule: Q01DX001 (ip), vehicle: saline
  T/C: 101 % of control
dose: 300.0 mg/kg/injection, schedule: Q01DX001 (ip), vehicle: saline
  T/C: 110 % of control

## COc1ccc(NC(=O)NO)cc1
dose: 50.0 mg/kg/injection, schedule: Q04DX002 (ip), vehicle: saline with Tween-80
  T/C: 108 % of control
dose: 100.0 mg/kg/injection, schedule: Q04DX002 (ip), vehicle: saline with Tween-80
  T/C: 101 % of control
dose: 200.0 mg/kg/injection, schedule: Q04DX002 (ip), vehicle: saline with Tween-80
  T/C: 108 % of control

## COP(=O)(OC)c1nc(P(=O)(OC)OC)nc(P(=O)(OC)OC)n1
dose: 50.0 mg/kg/injection, schedule: Q01DX001 (ip), vehicle: saline
  T/C: 98 % of control
[1]
  T/C: 93 % of control
[2]
  T/C: 93 % of control
[3]
  T/C: 93 % of control

## O=c1[nH]nc(SC2CCCCC2)c(=O)[nH]1
[1]
  T/C: 108 % of control
[2]
  T/C: 108 % of control
[3]
  T/C: 106 % of control

## c1ccc2[nH]c(/N=N/c3nc4ccccc4[nH]3)nc2c1
[4]
  T/C: 95 % of control
dose: 100.0 mg/kg/injection, schedule: Q04DX003 (ip), vehicle: Klucel (hydroxypropylcellulose) (HPC)
  T/C: 94 % of control
[5]
  T/C: 105 % of control
dose: 200.0 mg/kg/injection, schedule: Q04DX003 (ip), vehicle: Klucel (hydroxypropylcellulose) (HPC)
  T/C: 98 % of control
[6]
  T/C: 87 % of control
dose: 400.0 mg/kg/injection, schedule: Q04DX003 (ip), vehicle: Klucel (hydroxypropylcellulose) (HPC)
  T/C: 98 % of control

## CC(C)(C)c1ccc(SC(=O)Nc2cccc(Cl)c2Cl)cc1
[4]
  T/C: 96 % of control
dose: 100.0 mg/kg/injection, schedule: Q04DX002 (ip), vehicle: Klucel (hydroxypropylcellulose) (HPC)
  T/C: 92 % of control
[5]
  T/C: 103 % of control
dose: 200.0 mg/kg/injection, schedule: Q04DX002 (ip), vehicle: Klucel (hydroxypropylcellulose) (HPC)
  T/C: 92 % of control
[6]
  T/C: 100 % of control
dose: 400.0 mg/kg/injection, schedule: Q04DX002 (ip), vehicle: Klucel (hydroxypropylcellulose) (HPC)
  T/C: 95 % of control

## CN(C)NCCN1CCN(CCCN2c3ccccc3Sc3ccc(C(F)(F)F)cc32)CC1
dose: 6.25 mg/kg/injection, schedule: Q01DX009 (ip), vehicle: saline
  T/C: 116 % of control
dose: 12.5 mg/kg/injection, schedule: Q01DX009 (ip), vehicle: saline
  T/C: 89 % of control
dose: 12.5 mg/kg/injection, schedule: Q04DX003 (ip), vehicle: saline
  T/C: 101 % of control
dose: 25.0 mg/kg/injection, schedule: Q01DX009 (ip), vehicle: saline
  T/C: 107 % of control
dose: 25.0 mg/kg/injection, schedule: Q04DX003 (ip), vehicle: saline
  T/C: 104 % of control

## COC(=O)NS(=O)(=O)/C=C/N1CCCC1=O
dose: 75.0 mg/kg/injection, schedule: Q04DX003 (ip), vehicle: Klucel (hydroxypropylcellulose) (HPC)
  T/C: 96 % of control
dose: 150.0 mg/kg/injection, schedule: Q04DX003 (ip), vehicle: Klucel (hydroxypropylcellulose) (HPC)
  T/C: 100 % of control
dose: 300.0 mg/kg/injection, schedule: Q04DX003 (ip), vehicle: Klucel (hydroxypropylcellulose) (HPC)
  T/C: 100 % of control

## O=C1CSCC(=O)N1
dose: 100.0 mg/kg/injection, schedule: Q01DX009 (ip), vehicle: saline
  T/C: 102 % of control
dose: 200.0 mg/kg/injection, schedule: Q01DX009 (ip), vehicle: saline
  T/C: 97 % of control
dose: 400.0 mg/kg/injection, schedule: Q01DX009 (ip), vehicle: saline
  T/C: 103 % of control
